Assay results: US20260378560A1, “APPROACHES TO DESIGNING AND PERFORMING COMPRESSED BIOLOGICAL EXPERIMENTS AND SYSTEMS FOR IMPLEMENTING THE SAME” (EXVIVO LABS INC., priority 2023, published 2026)
Read-outs that look alike come from different tables or passages of the source.

Tests used:
MOLT-4 [1] = experiment: Cell viability (CellTiter Glo), library of cancer drugs, individual or sample compression with randomized (alphabetical) pools, MOLT-4; assay type: cell-based
Procedure: (§1) Total cell viability was measured for each sample using an ATP-based luminescence assay (i.e., CellTiter Glo). Each cancer drug was then screened at multiple concentrations ranging from one nM to ten μM in order to generate a dose-response curve and calculate a DRS for each cancer cell line.
(§2) Each cancer drug was cultured with target cells individually. At the end of the screen, samples were either analyzed individually or compressed into pools for analysis. The library was compressed alphabetically into ten cohorts, each of which contained seven cancer drugs present in three out of the seven pools, as shown in Table VII. Said another way, the screening platform 210 generated a “7 pick 3” compressed library by assigning the cancer drugs among different pools. […] The library was also compressed into ten cohorts with pools designed based on information known about each cancer drug, as shown in Table VIII. After cell viability measurement and DRS calculation, the DRS of each cancer drug in the samples generated based on the pools were deconvoluted and compared to the DRS for each cancer drug measured individually.
(§3) In SUM-based deconvolution, an assumption of additivity is used to quantify the individual effects of each perturbation on each target. Additivity implies that each perturbation effect on each target is positively contributing to the overall effect measured for that pool. This is an accurate assumption for certain experiments, such as when targets or samples are compressed. When targets are pooled—or when samples containing different targets are pooled—the effect of each perturbation on each individual target is diluted. In other words, each perturbation has an isolated effect on a target in culture, and the sum total of the isolated effects are measured when pooled. Therefore, SUM-based deconvolution breaks down the sum total measured for a pool and assigns estimated fractional effects to each compressed perturbation or target in the pool. The screening platform 210 used SUM-based deconvolution for all target and sample compression experiments described above.

MOLT-4 [2] = experiment: Cell viability (CellTiter Glo), compressed perturbation pools with informed pool design, MAX-based deconvolution, MOLT-4;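 also: higher DRS means a larger drug effect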
Procedure: as §1, §2
(§4) In parallel to the exemplary sample compression screen covered in Table VII, perturbations were compressed into pools and then screened. The pools were designed using drug class as a feature with two compression rules (or simply “rules”). The first rule required that drugs from the same class be separated into different cohorts (i.e., mutually exclusive groups of pools). […] A benefit of compressing perturbations is the ability to measure additive, antagonistic, and synergistic effects between drugs in the same pool. However, these effects can negatively impact deconvolution of individual drug effects. Therefore, combinations of drugs for which evidence of clinical toxicity exists can be assigned to different pools in accordance with an informed pooling operation. As new preclinical or clinical evidence of toxic combinations becomes available, the rules implemented by the screening platform 210—and more specifically, its algorithm for compressing members of a library—can be updated accordingly.
(§5) In MAX-based deconvolution, an assumption of neutrality between the compressed perturbations is made. In other words, the perturbation with the largest effect is assumed to be masking the effects, if any, of the other perturbations in the pool. For SUM- and MAX-based deconvolution, qualitative deconvolution is first performed to rank the perturbations in each pool based on size of expected effect. Qualitative deconvolution, as described above, ranks the perturbations in a pool from largest effect size to smallest effect size. The ranking is based on the overlap of each perturbation's unique subset of pools with the highest and lowest measured pools. The perturbation with the largest effect is expected to be present in the pools with the highest measured signal or corresponding metric (e.g., DRS), while the perturbation with the smallest effect is expected to be present in the pools with the lowest measured signal or corresponding metric (e.g., DRS).
(§6) For MAX-based deconvolution, the highest ranked perturbation in the rank order is first assigned an effect size based on the pool with the lowest measured signal or corresponding metric (e.g., DRS) that it is present in. Said another way, the screening platform 210 can identify the highest ranked perturbation in the rank order and then assign an effect size based on the measured signal or corresponding metric (e.g., DRS) of the “weakest” pool in which the highest ranked perturbation is included. The screening platform 210 can repeat this step for the next highest ranked perturbation, and so on until the measurements for each pool have been assigned to one of the perturbations. The effects for the remaining perturbations can be assigned a value of zero, since it is assumed that their effect is masked by the perturbation with the largest effect in each pool.

REH [3] = experiment: Cell viability (CellTiter Glo), compressed perturbation pools with informed pool design, MAX-based deconvolution, REH;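 also: higher DRS means a larger drug effect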
Procedure: as §1, §2, §4, §5, §6

REH [4] = experiment: Cell viability (CellTiter Glo), library of cancer drugs, individual or sample compression with randomized (alphabetical) pools, REH; assay type: cell-based
Procedure: as §1, §2, §3

[5] = MOLT-4, None (measured individually)
[6] = MOLT-4, Samples, 7 Pick 3 randomized (alphabetical) sample pools
[7] = MOLT-4, None (measured individually), informed pool design table
[8] = MOLT-4, Samples, 7 Pick 3 informed perturbation pools
[9] = REH, None (measured individually), informed pool design table
[10] = REH, Samples, 7 Pick 3 informed perturbation pools
[11] = REH, None (measured individually)
[12] = REH, Samples, 7 Pick 3 randomized (alphabetical) sample pools

| SMILES | DRS (MOLT-4 [1]; [5]) | DRS from deconvolution (MOLT-4 [1]; [6]) | DRS (MOLT-4 [2]; [7]) | DRS from MAX-based deconvolution (MOLT-4 [2]; [8]) | DRS (REH [3]; [9]) | DRS from MAX-based deconvolution (REH [3]; [10]) | DRS (REH [4]; [11]) | DRS from deconvolution (REH [4]; [12]) | DRS (MOLT-4 [1]) | DRS from deconvolution (MOLT-4 [1]) | DRS (MOLT-4 [2]) | DRS from MAX-based deconvolution (MOLT-4 [2]) | DRS (REH [3]) | DRS from MAX-based deconvolution (REH [3]) | DRS (REH [4]) | DRS from deconvolution (REH [4]) |
| --- | --- | --- | --- | --- | --- | --- | --- | --- | --- | --- | --- | --- | --- | --- | --- | --- |
| CC(C)(C#N)c1cc(Cn2cncn2)cc(C(C)(C)C#N)c1 [Anastrozole] | 0.01 | 0.00 | 0.56 | 0.79 | 0.06 | 0.00 | 0.01 | 0.21 | – | – | – | – | – | – | – | – |
| CNC(=O)c1ccc(-c2cnc3ncc(Cc4ccc5ncccc5c4)n3n2)cc1F [Capmatinib] | 0.10 | 7.24 | 0.40 | 0.00 | 0.00 | 0.00 | 0.10 | 1.13 | – | – | – | – | – | – | – | – |
| Cc1ccc(C(=O)Nc2ccc(CN3CCN(C)CC3)c(C(F)(F)F)c2)cc1C#Cc1cnc2cccnn12 [Ponatinib] | 6.12 | 6.51 | 0.24 | 0.00 | 0.84 | 0.00 | 4.42 | 3.86 | – | – | – | – | – | – | – | – |
| Nc1cc(F)ccc1NC(=O)c1ccc(CNC(=O)/C=C/c2cccnc2)cc1 [Tucidinostat] | 6.77 | 7.95 | 0.50 | 0.00 | 2.40 | 0.00 | 10.87 | 11.23 | – | – | – | – | – | – | – | – |
| Cc1c(C(=O)Nc2ccc(N3C[C@@H](C)O[C@@H](C)C3)nc2)cccc1-c1ccc(OC(F)(F)F)cc1 [Sonidegib] | 2.50 | 2.47 | 1.79 | 0.00 | 0.79 | 3.57 | 2.40 | 2.42 | – | – | – | – | – | – | – | – |
| Cn1cnc2c(F)c(Nc3ccc(Br)cc3F)c(C(=O)NOCCO)cc21 [Binimetinib] | 0.00 | 0.00 | 0.11 | 0.00 | 0.37 | 0.00 | 0.00 | 0.00 | – | – | – | – | – | – | – | – |
| CNC(=O)c1ccc(N2C(=S)N(c3ccc(C#N)c(C(F)(F)F)c3)C(=O)C2(C)C)cc1F [Enzalutamide] | 0.00 | 0.00 | 25.00 | 28.24 | 27.70 | 31.61 | 0.00 | 0.00 | – | – | – | – | – | – | – | – |
| CCc1nc(C(N)=O)c(Nc2ccc(N3CCC(N4CCN(C)CC4)CC3)c(OC)c2)nc1NC1CCOCC1 [Gilteritinib] | 0.00 | 0.00 | 0.00 | 0.00 | 0.20 | 0.00 | 0.00 | 0.00 | – | – | – | – | – | – | – | – |
| CC(C)(O)CNc1nc(Nc2ccnc(C(F)(F)F)c2)nc(-c2cccc(C(F)(F)F)n2)n1 [Enasidenib] | – | – | – | – | – | – | – | – | 0.00 | 0.00 | 0.00 | 0.00 | 0.00 | 0.00 | 0.00 | 0.00 |
| Cc1cc(Nc2ncc(Cl)c(Nc3ccccc3S(=O)(=O)C(C)C)n2)c(OC(C)C)cc1C1CCNCC1 [Ceritinib] | 0.00 | 0.00 | 6.77 | 6.77 | 10.87 | 12.65 | 0.60 | 0.60 | – | – | – | – | – | – | – | – |
| CC/C(=C(\c1ccccc1)c1ccc(OCCN(C)C)cc1)c1ccccc1 [Tamoxifen] | 1.12 | 1.09 | 0.74 | 0.00 | 0.14 | 0.00 | 3.12 | 3.01 | – | – | – | – | – | – | – | – |
| Cc1cnc(Nc2ccc(OCCN3CCCC3)cc2)nc1Nc1cccc(S(=O)(=O)NC(C)(C)C)c1 [Fedratinib] | 4.84 | 4.67 | 2.70 | 3.88 | 8.20 | 9.03 | 4.94 | 5.00 | – | – | – | – | – | – | – | – |
| COc1cc2c(Nc3ccc(Br)cc3F)ncnc2cc1OCC1CCN(C)CC1 [Vandetanib] | 3.01 | 3.12 | 2.19 | 2.51 | 7.39 | 9.02 | 3.01 | 2.79 | – | – | – | – | – | – | – | – |
| CC(=O)Nc1cccc(-n2c(=O)n(C3CC3)c(=O)c3c(Nc4ccc(I)cc4F)n(C)c(=O)c(C)c32)c1 [Trametinib] | 0.00 | 0.00 | 24.71 | 24.91 | 21.81 | 23.72 | 0.00 | 0.00 | – | – | – | – | – | – | – | – |
| C[C@@H]1CCN(C(=O)CC#N)C[C@@H]1N(C)c1ncnc2[nH]ccc12 [Tofacitinib] | 0.00 | 0.00 | 2.96 | 0.00 | 3.15 | 4.06 | 0.20 | 0.00 | – | – | – | – | – | – | – | – |
| C[C@]12CC[C@H](O)CC1=CC[C@@H]1[C@@H]2CC[C@]2(C)C(c3cccnc3)=CC[C@@H]12 [Abiraterone] | 0.27 | 0.30 | 0.00 | 0.00 | 0.20 | 0.00 | 0.27 | 0.29 | – | – | – | – | – | – | – | – |
| N#Cc1ccc(C(c2ccc(C#N)cc2)n2cncn2)cc1 [Letrozole] | 3.50 | 3.47 | 0.00 | 0.00 | 0.00 | 0.00 | 3.93 | 4.02 | – | – | – | – | – | – | – | – |
| Cc1cc(Nc2ncnc3ccc(NC4=NC(C)(C)CO4)cc23)ccc1Oc1ccn2ncnc2c1 [Tucatinib] | 0.00 | 0.00 | 0.80 | 0.00 | 0.91 | 0.00 | 0.30 | 0.21 | – | – | – | – | – | – | – | – |
| N#CC[C@H](C1CCCC1)n1cc(-c2ncnc3[nH]ccc23)cn1 [Ruxolitinib] | 1.60 | 1.74 | 0.00 | 0.00 | 0.60 | 0.00 | 0.00 | 0.00 | – | – | – | – | – | – | – | – |
